Measured values reported in PubChem BioAssay AID2060907 (Molecular Pharmacology Branch, DTP, NCI, 2025).
Where “and” joins values, the source holds several entries; their conditions need not be identical. Identical values can stand only once.

Tested on: 388556-164-R-J1-PDC complex spheroid viability
Test: Anticancer human tumor 388556-164-R-J1-PDC patient-derived colon adenocarcinoma cell line growth inhibition [RAS]
Conditions: for viability, T/C: stronger effect = lower value
Excerpt: RAS pathway inhibitors in Combinations in Complex Spheroids
A high-throughput screen of multi-cell type tumor spheroids was designed to identify active combinations of RAS pathway inhibitors and targeted small molecules. Complex spheroids include a stromal component modeled by human endothelial cells (HUVEC) and fibroblasts modeled by human mesenchymal stem cells (MSCs). The concentration ranges selected for each drug and investigational agent were based upon clinically achievable concentrations if the clinical Cmax of the agent was known.
Compounds. The drugs and investigational agents: abemaciclib (NSC768073), cobimetinib (NSC768068), divarasib (GDC6063, NSC841802), docetaxel (NSC628503), GDC-1971 (RLY-1971, NSC841576), gemcitabine (NSC613327), inavolisib (NSC800729), ipatasertib (NSC767898), KB-0742 (NSC834161), MRTX-1133 (NSC836407), osimertinib (NSC779217), RMC-4630 (NSC839698), RMC-6236 (NSC851965), RMC-6291 (NSC852671), Ro-3306 (NSC812927), sapanisertib (NSC764658), SN-38 (NSC673596), staurosporine (NSC755774), SY5609 (NSC837396), and tovorafenib (DAY101, NSC766906), were obtained from the National Cancer Institute (NCI) Developmental Therapeutics Program Chemical Repository. The FDA-approved anticancer drug set is available from the NCI Developmental Therapeutics Program. […] The stock solutions were prepared in dimethyl sulfoxide (DMSO, Sigma-Aldrich, St. Louis, MO, cat. D2650) at 800-fold the tested concentration and stored at -70 degrees C prior to their use. All drugs and investigational agents were tested over a range starting from a high concentration at or near the clinical Cmax and decreasing in half-log increments. If the clinical Cmax for an agent had not been determined, the highest concentration tested was 10 microM.
Cell Culture. All cells were maintained in an incubator at 37 degrees C and 5% CO2 with 95% humidity. The PDC lines were cultured according to standard operating procedures established by the NCI PDMR. All PDCs were thawed and cultured in Matrigel-coated flasks prepared with a working solution of 1X Ham's F-12 nutrient mix, without supplementation (Invitrogen, Waltham, MA, cat. 11765054), 100 U/mL penicillin-streptomycin (Invitrogen, cat. 15140122), and 2.5% Matrigel (Corning Inc., Corning, NY, cat. 354248) for the first three passages. The 362531-283-R-J2-PDC and 782815-120-R-J1-PDC lines were cultured in 6C/Colon 1B media, which includes advanced DMEM/F-12 (Thermo Fisher Scientific, cat. 12634028), 10 mM HEPES (Thermo Fisher Scientific, cat. 15630080), 1X GlutaMAX supplement (Thermo Fisher Scientific, cat. 35050061), 0.1 mg/mL primocin (InvivoGen, San Diego, CA, cat. ant-pm-2), 10% defined fetal bovine serum, heat inactivated (HyClone Laboratories Inc., Logan, UT, cat. SH30070.03HI), 50% L-WRN conditioned media (ATCC, cat. CRL-3276), 1.25 mM N-Acetyl-L-cysteine (Sigma-Aldrich, cat. A9165), 10 mM nicotinamide (Sigma-Aldrich, cat. N0636), 1X B-27 supplement (Thermo Fisher Scientific, cat. 17504044), 1X N-2 supplement (Thermo Fisher Scientific, cat. 17502048), 50 ng/mL human EGF (Thermo Fisher Scientific, cat. PHG0311), and 10 microM Y-27632 dihydrochloride (Tocris Bioscience, cat. 1254). The K12877-001-R-J1-PDC line was cultured in 6I media, which includes all 6C/Colon 1B media plus 10 ng/mL human FGF-10 (PeproTech, cat. 100-26), 1 ng/mL human FGF-2 (PeproTech, cat. 100-18B), 1 µM prostaglandin E2 (Tocris Bioscience, cat. 2296), […] hydrocortisone (Sigma-Aldrich, cat. H4001), and […] bovine insulin (Sigma-Aldrich, cat. I6634). The K86415-001-R-J1-PDC line was cultured in 6D media, which includes all 6C/Colon 1B media components minus the L-WRN conditioned media. The 485176-168-R4-J1-PDC was cultured in PANC media, which includes all 6C/Colon 1B media plus 100 ng/mL human FGF-10 (PeproTech, cat. 100-26), 500 nM SB-431542 (Selleckchem, cat. S1067), and 10 nM gastrin (Tocris Bioscience, cat. 3006). […]
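Also: spheroids exposed to compound for 7 days before readout.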
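For viability, T/C in this document: 100% = DMSO vehicle control luminescence.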

Row | Structure (SMILES) | viability, T/C (compound 0.00316 µM) | viability, T/C (compound 0.01 µM) | viability, T/C (compound 0.0316 µM) | viability, T/C (compound 0.1 µM) | viability, T/C (compound 0.316 µM) | viability, T/C (compound 1 µM) | IC50 (curve of compound) | viability, T/C (compound 0.000949 µM) | viability, T/C (compound 0.003 µM) | viability, T/C (compound 0.00949 µM) | viability, T/C (compound 0.03 µM) | viability, T/C (compound 0.0949 µM) | viability, T/C (compound 0.3 µM) | IC50 (compound alone, run of 08/26/2024) | IC50 (compound alone, run of 08/20/2024) [µM] | viability, T/C (compound 3.16 µM) | viability, T/C (compound 10 µM)
1 | CCN1CCN(Cc2ccc(Nc3ncc(F)c(-c4cc(F)c5nc(C)n(C(C)C)c5c4)n3)nc2)CC1 | 99% and 107% and 91.4% | 103% and 96.9% and 102% | 100% and 93.8% and 103% | 97.8% and 98.6% and 93.7% | 83.3% and 90.2% and 96.2% | 91.3% and 82.5% and 92.3% | > 1 µM | – | – | – | – | – | – | – | – | – | –
2 | CCc1c2c(nc3ccc(O)cc13)-c1cc3c(c(=O)n1C2)COC(=O)[C@]3(O)CC | – | – | – | – | – | – | 90.4 nM [middle of 4 runs] | 108% [middle of 4 runs] | 93.6% [middle of 4 runs] | 84.6% [middle of 4 runs] | 68.7% [middle of 4 runs] | 50.5% [middle of 4 runs] | 32% [middle of 4 runs] | – | – | – | –
3 | CCn1c(-c2cc(N3CCN(C)CC3)cnc2C(C)OC)c2c3cc(ccc31)-c1csc(n1)CC(NC(=O)C1CC1C)C(=O)N1CCCC(N1)C(=O)OCC(C)(C)C2 (stereo not given) | – | – | – | – | – | – | – | 99% [middle of 8 runs] | 92% [middle of 8 runs] | 78.5% [middle of 8 runs] | 62.5% [middle of 8 runs] | 45.2% [middle of 8 runs] | 34.4% [middle of 8 runs] | 68.6 nM [middle of 8 runs] | – | – | –
4 | CCn1c(-c2cccnc2C(C)OC)c2c3cc(ccc31)N1CCOC(CC(NC(=O)C(C(C)C)N(C)C(=O)C3(F)CCN(C(=O)C#CC(C)(C)N(C)C)CC3)C(=O)N3CCCC(N3)C(=O)OCC(C)(C)C2)C1 (stereo not given) | – | – | – | – | – | – | – | 105% [middle of 6 runs] | 107% [middle of 6 runs] | 106% [middle of 6 runs] | 102% [middle of 6 runs] | 106% [middle of 6 runs] | 100% [middle of 6 runs] | – | > 0.3 | – | –
5 | C[C@@H](NC(=O)c1ncnc(N)c1Cl)c1ncc(C(=O)Nc2cc(C(F)(F)F)c(Cl)cn2)s1 | – | – | 106% [middle of 4 runs] | 112% [middle of 4 runs] | 121% [middle of 4 runs] | 118% and 115% (2×) and 132% | > 10 µM | – | – | – | – | – | – | – | – | 116% [middle of 4 runs] | 97.4% [middle of 4 runs]
6 | NC1c2ccccc2OC12CCN(c1cnc3c(N4CCCc5ncccc54)n[nH]c3n1)CC2 (stereo not given) | – | – | 70% [middle of 4 runs] | 59.9% [middle of 4 runs] | 48.8% [middle of 4 runs] | 41.2% [middle of 4 runs] | 242 nM [middle of 4 runs] | – | – | – | – | – | – | – | – | 43.6% [middle of 4 runs] | 37.6% [middle of 4 runs]
7 | Nc1ccn(C2OC(CO)C(O)C2(F)F)c(=O)n1 (stereo not given) | 97.9% [middle of 4 runs] | 93.1% [middle of 4 runs] | 81.8% [middle of 4 runs] | 79% [middle of 4 runs] | 74.7% [middle of 4 runs] | 70.2% [middle of 4 runs] | > 1 µM | – | – | – | – | – | – | – | – | – | –
8 | O=C(c1ccc(F)c(F)c1Nc1ccc(I)cc1F)N1CC(O)([C@@H]2CCCCN2)C1 | – | 93.1% [middle of 4 runs] | 82.8% [middle of 4 runs] | 56.3% [middle of 4 runs] | 40.9% [middle of 4 runs] | 22.8% [middle of 4 runs] | 164 nM [middle of 4 runs] | – | – | – | – | – | – | – | – | – | –
